{"source": "patent US20170334899A1", "about": "“AMINO-SUBSTITUTED ISOTHIAZOLES” (Bayer Pharma Aktiengesellschaft, priority 2014, published 2017)"}
{"tested_on": "human cervical tumor cell line HeLa (ATCC CCL-2)", "assay": "SAC-Formation - Nocodazole-Induced Assay", "format": "cell-based", "details": "Homo sapiens, HeLa, 24 h, HeLa cells, nocodazole 0.1 μg/ml together with test compound, decrease of mitotic cells (phospho-histone H3 Ser10)", "in_short": "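HeLa cells, plated overnight, were treated 24 h at 37 °C with nocodazole (0.1 μg/ml final) plus test compound (0.005–20 μM, 0.5% DMSO) added at the same time. After fixation, anti-phospho-histone H3 Ser10 and Hoechst staining gave the mitotic cell fraction by imaging. Values came from four-parameter Hill fits.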", "units": {"IC50": "nM"}}
{"compound": "Cc1nsc(Nc2cnc(C(F)(F)F)cn2)c1C(=O)Nc1ccc(OCC2CCN(CCC(F)(F)F)CC2)nc1", "note": "[Example 347, 3-methyl-5-{[5-(trifluoromethyl)pyrazin-2-yl]amino}-N-(6-{[1-(3,3,3-trifluoropropyl)piperidin-4-yl]methoxy}pyridin-3-yl)-1,2-thiazole-4-carboxamide]", "IC50": 40}
{"compound": "Cc1nsc(Nc2cnc(C(F)(F)F)cn2)c1C(=O)Nc1ccc(OCCN(C)CCF)nc1", "note": "[Example 348, N-(6-{2-[(2-fluoroethyl)(methyl)amino]ethoxy}pyridin-3-yl)-3-methyl-5-{[5-(trifluoromethyl)pyrazin-2-yl]amino}-1,2-thiazole-4-carboxamide]", "IC50": 310}
{"compound": "Cc1nsc(Nc2cnc(C(F)(F)F)cn2)c1C(=O)Nc1ccc(OCCN(C)CC(F)F)nc1", "note": "[Example 349, N-(6-{2-[(2,2-difluoroethyl)(methyl)amino]ethoxy}pyridin-3-yl)-3-methyl-5-{[5-(trifluoromethyl)pyrazin-2-yl]amino}-1,2-thiazole-4-carboxamide]", "IC50": 81}
{"compound": "Cc1nsc(Nc2cnc(C(F)(F)F)cn2)c1C(=O)Nc1ccc(OCCN(C)CC(F)(F)F)nc1", "note": "[Example 350, 3-methyl-N-(6-{2-[methyl(2,2,2-trifluoroethyl)amino]ethoxy}pyridin-3-yl)-5-{[5-(trifluoromethyl)pyrazin-2-yl]amino}-1,2-thiazole-4-carboxamide]", "IC50": 99}
{"compound": "Cc1nsc(Nc2cnc(C(F)(F)F)cn2)c1C(=O)Nc1ccc(OCCN(C)CCC(F)(F)F)nc1", "note": "[Example 351, 3-methyl-N-(6-{2-[methyl(3,3,3-trifluoropropyl)amino]ethoxy}pyridin-3-yl)-5-{[5-(trifluoromethyl)pyrazin-2-yl]amino}-1,2-thiazole-4-carboxamide]", "IC50": 98}
{"compound": "Cc1nsc(Nc2cnc(C(F)(F)F)cn2)c1C(=O)Nc1ccc(OCCCN(C)CCF)nc1", "note": "[Example 352, N-(6-{3-[(2-fluoroethyl)(methyl)amino]propoxy}pyridin-3-yl)-3-methyl-5-{[5-(trifluoromethyl)pyrazin-2-yl]amino}-1,2-thiazole-4-carboxamide]", "IC50": 470}
{"compound": "Cc1nsc(Nc2cnc(C(F)(F)F)cn2)c1C(=O)Nc1ccc(OCCCN(C)CC(F)F)nc1", "note": "[Example 353, N-(6-{3-[(2,2-difluoroethyl)(methyl)amino]propoxy}pyridin-3-yl)-3-methyl-5-{[5-(trifluoromethyl)pyrazin-2-yl]amino}-1,2-thiazole-4-carboxamide]", "IC50": 96}
{"compound": "Cc1nsc(Nc2cnc(C(F)(F)F)cn2)c1C(=O)Nc1ccc(OCCCN(C)CC(F)(F)F)nc1", "note": "[Example 354, 3-methyl-N-(6-{3-[methyl(2,2,2-trifluoroethyl)amino]propoxy}pyridin-3-yl)-5-{[5-(trifluoromethyl)pyrazin-2-yl]amino}-1,2-thiazole-4-carboxamide]", "IC50": 110}
{"compound": "Cc1nsc(Nc2cnc(C(F)(F)F)cn2)c1C(=O)Nc1ccc(OCCCN(C)CCC(F)(F)F)nc1", "note": "[Example 355, 3-methyl-N-(6-{3-[methyl(3,3,3-trifluoropropyl)amino]propoxy}pyridin-3-yl)-5-{[5-(trifluoromethyl)pyrazin-2-yl]amino}-1,2-thiazole-4-carboxamide]", "IC50": 150}
{"compound": "Cc1nsc(Nc2cnc(C(F)(F)F)cn2)c1C(=O)Nc1ccc(CCC2CCN(CC(F)F)CC2)nc1", "note": "[Example 356, N-(6-{2-[1-(2,2-difluoroethyl)piperidin-4-yl]ethyl}pyridin-3-yl)-3-methyl-5-{[5-(trifluoromethyl)pyrazin-2-yl]amino}-1,2-thiazole-4-carboxamide]", "IC50": 50}
{"compound": "Cc1nsc(Nc2cnc(C(F)(F)F)cn2)c1C(=O)Nc1ccc(C2CCN(CC(F)F)CC2)nc1", "note": "[Example 357, N-{6-[1-(2,2-difluoroethyl)piperidin-4 yl]pyridin-3-yl}-3-methyl-5-{[5-(trifluoromethyl)pyrazin-2-yl]amino}-1,2-thiazole-4-carboxamide]", "IC50": 44}
{"compound": "Cc1nsc(Nc2cnc(C(F)(F)F)cn2)c1C(=O)Nc1ccc(C2CCN(CC(F)(F)F)CC2)nc1", "note": "[Example 358, 3-methyl-N-{6-[1-(2,2,2-trifluoroethyl)piperidin-4-yl]pyridin-3-yl}-5-{[5-(trifluoromethyl)pyrazin-2-yl]amino}-1,2-thiazole-4-carboxamide]", "IC50": 30}
{"compound": "Cc1nsc(Nc2cnc(C(F)(F)F)cn2)c1C(=O)Nc1ccc(N2CCN(CC(F)F)CC2)nc1", "note": "[Example 359, N-{6-[4-(2,2-difluoroethyl)piperazin-1-yl]pyridin-3-yl}-3-methyl-5-{[5-(trifluoromethyl)pyrazin-2-yl]amino}-1,2-thiazole-4-carboxamide]", "IC50": 29}
{"compound": "Cc1nsc(Nc2cnc(C(F)(F)F)cn2)c1C(=O)Nc1ccc(N2CCN(CC(F)(F)F)CC2)nc1", "note": "[Example 360, 3-methyl-N-{6-[4-(2,2,2-trifluoroethyl)piperazin-1-yl]pyridin-3-yl}-5-{[5-(trifluoromethyl)pyrazin-2-yl]amino}-1,2-thiazole-4-carboxamide]", "IC50": 36}
{"compound": "Cc1nsc(Nc2cnc(C(F)(F)F)cn2)c1C(=O)Nc1ccc(N2CCN(CCC(F)(F)F)CC2)nc1", "note": "[Example 361, 3-methyl-5-{[5-(trifluoromethyl)pyrazin-2-yl]amino}-N-{6-[4-(3,3,3-trifluoropropyl)piperazin-1-yl]pyridin-3-yl}-1,2-thiazole-4-carboxamide]", "IC50": 68}
{"compound": "Cc1nsc(Nc2cnc(C(F)(F)F)cn2)c1C(=O)Nc1ccc(O[C@H]2CCN(CC(F)F)C[C@@H]2F)nc1", "note": "[Example 362]", "IC50": 2.3}
{"compound": "Cc1nsc(Nc2cnc(C(F)(F)F)cn2)c1C(=O)Nc1ccc(O[C@H]2CCN(CC(F)(F)F)C[C@@H]2F)nc1", "note": "[Example 363, N-(6-{[(3S,4S)-3-fluoro-1-(2,2,2-trifluoroethyl)piperidin-4-yl]oxy}pyridin-3-yl)-3-methyl-5-{[5-(trifluoromethyl)pyrazin-2-yl]amino}-1,2-thiazole-4-carboxamide]", "IC50": 110}
{"compound": "Cc1nsc(Nc2cnc(C(F)(F)F)cn2)c1C(=O)Nc1ccc(O[C@H]2CCN(CCC(F)(F)F)C[C@@H]2F)nc1", "note": "[Example 364, N-(6-{[(3S,4S)-3-fluoro-1-(3,3,3-trifluoropropyl)piperidin-4-yl]oxy}pyridin-3-yl)-3-methyl-5-{[5-(trifluoromethyl)pyrazin-2-yl]amino}-1,2-thiazole-4-carboxamide]", "IC50": 12}
{"compound": "CCN1CC[C@H](Oc2ccc(NC(=O)c3c(C)nsc3Nc3cnc(C(F)(F)F)cn3)cn2)[C@@H](F)C1", "note": "[Example 365, N-(6-{[(3S,4S)-1-ethyl-3-fluoropiperidin-4-yl]oxy}pyridin-3-yl)-3-methyl-5-{[5-(trifluoromethyl)pyrazin-2-yl]amino}-1,2-thiazole-4-carboxamide]", "IC50": 34}
{"compound": "Cc1nsc(Nc2cnc(C(F)(F)F)cn2)c1C(=O)Nc1ccc(O[C@@H]2CCN(CC(F)F)C[C@H]2F)nc1", "note": "[Example 366, N-(6-{[(3R,4R)-1-(2,2-difluoroethyl)-3-fluoropiperidin-4-yl]oxy}pyridin-3-yl)-3-methyl-5-{[5-(trifluoromethyl)pyrazin-2-yl]amino}-1,2-thiazole-4-carboxamide]", "IC50": 58}
{"compound": "Cc1nsc(Nc2cnc(C(F)(F)F)cn2)c1C(=O)Nc1ccc(O[C@@H]2CCN(CC(F)(F)F)C[C@H]2F)nc1", "note": "[Example 367, N-(6-{[(3R,4R)-3-fluoro-1-(2,2,2-trifluoroethyl)piperidin-4-yl]oxy}pyridin-3-yl)-3-methyl-5-{[5-(trifluoromethyl)pyrazin-2-yl]amino}-1,2-thiazole-4-carboxamide]", "IC50": 27}
{"compound": "Cc1nsc(Nc2cnc(C(F)(F)F)cn2)c1C(=O)Nc1ccc(O[C@@H]2CCN(CCC(F)(F)F)C[C@H]2F)nc1", "note": "[Example 368, N-(6-{[(3R,4R)-3-fluoro-1-(3,3,3-trifluoropropyl)piperidin-4-yl]oxy}pyridin-3-yl)-3-methyl-5-{[5-(trifluoromethyl)pyrazin-2-yl]amino}-1,2-thiazole-4-carboxamide]", "IC50": 16}
{"compound": "CCN1CC[C@@H](Oc2ccc(NC(=O)c3c(C)nsc3Nc3cnc(C(F)(F)F)cn3)cn2)[C@H](F)C1", "note": "[Example 369, N-(6-{[(3R,4R)-1-ethyl-3-fluoropiperidin-4-yl]oxy}pyridin-3-yl)-3-methyl-5-{[5-(trifluoromethyl)pyrazin-2-yl]amino}-1,2-thiazole-4-carboxamide]", "IC50": 58}
{"compound": "CCCN1CC[C@H](Oc2ccc(NC(=O)c3c(C)nsc3Nc3cnc(C(F)(F)F)cn3)cn2)[C@@H](F)C1", "note": "[Example 370, N-(6-{[(3S,4S)-3-fluoro-1-propylpiperidin-4-yl]oxy}pyridin-3-yl)-3-methyl-5-{[5-(trifluoromethyl)pyrazin-2-yl]amino}-1,2-thiazole-4-carboxamide]", "IC50": 22}
{"compound": "CCCN1CC[C@@H](Oc2ccc(NC(=O)c3c(C)nsc3Nc3cnc(C(F)(F)F)cn3)cn2)[C@H](F)C1", "note": "[Example 371, N-(6-{[(3R,4R)-3-fluoro-1-propylpiperidin-4-yl]oxy}pyridin-3-yl)-3-methyl-5-{[5-(trifluoromethyl)pyrazin-2-yl]amino}-1,2-thiazole-4-carboxamide]", "IC50": 27}
{"compound": "Cc1nsc(Nc2cnc(C(F)(F)F)cn2)c1C(=O)Nc1ccc(N2CCN(CC(F)F)CC2)cn1", "note": "[Example 372, N-{5-[4-(2,2-difluoroethyl)piperazin-1-yl]pyridin-2-yl}-3-methyl-5-{[5-(trifluoromethyl)pyrazin-2-yl]amino}-1,2-thiazole-4-carboxamide]", "IC50": 120}
{"compound": "Cc1nsc(Nc2cnc(C(F)(F)F)cn2)c1C(=O)Nc1ccc(N2CCN(CC(F)(F)F)CC2)cn1", "note": "[Example 373, 3-methyl-N-{5-[4-(2,2,2-trifluoroethyl)piperazin-1-yl]pyridin-2-yl}-5-{[5-(trifluoromethyl)pyrazin-2-yl]amino}-1,2-thiazole-4-carboxamide]", "IC50": 260}
{"compound": "Cc1nsc(Nc2cnc(C(F)(F)F)cn2)c1C(=O)Nc1ccc(N2CCN(CCC(F)(F)F)CC2)cn1", "note": "[Example 374, 3-methyl-5-{[5-(trifluoromethyl)pyrazin-2-yl]amino}-N-{5-[4-(3,3,3-trifluoropropyl)piperazin-1-yl]pyridin-2-yl}-1,2-thiazole-4-carboxamide]", "IC50": 120}
